Test results as given in patent US20040214760A1, “Inhibition pf protein-phosphatases for the treatment of heart failure” (priority 2001, published 2004).

Key:
PP1 = details: heat and acid stable proteins of skeletal muscle extract (Cohen et al., 1998); cited from earlier work
[1] = target: 32P-labelled phosphorylase a

Row | 32P released from 32P-labelled phosphorylase a [1] [%] | Substance | inhibition of phosphatase (PP1) activity, dependence on phosphorylation state (PP1)
1 | – | inhibitor-1 | inhibits phosphatase activity only when it has been phosphorylated by cAMP-dependent protein kinase
2 | 30 | purified catalytic subunit of PP1 from rabbit skeletal muscle (enzyme) | –
